row,SMILES,melting point [°C]
1,CC(COc1ccc(CC2SC(=O)NC2=O)cc1)NCC(O)CN(C)c1ccccc1 (centres undefined),115 to 125
2,CCN1CCN(CC)C2SC(=C(C(=O)OC(C)C)C(=O)OC(C)C)SC21 (centres undefined),84 to 86
3,Cc1cccc(C)c1NCCN(C)CC(O)COc1cccc2[nH]ncc12 (centres undefined),120 to 121
4,O=c1c2ccccc2ccc2cc(CCO)ccc12,73 to 75
5,OCCSC/C=C/c1ccc(Cc2cccnc2)cc1,73 to 74
6,Cc1cnc2cc(N)ccc2n1,163 to 164
7,C=C(COc1ccccc1C=NO)c1ccccc1,61 to 62
8,CCOc1ccc2[nH]c(=O)n(-c3ccccn3)c2c1,205
9,CCOc1cc(O)cc2c1C(=O)N(CSc1ccccc1)S2(=O)=O,204 to 205
10,c1ccc2c(c1)CCc1c-2noc1N1CCNCC1,97 to 99
11,c1nc(CSCCc2ccc3c(c2)OCO3)c[nH]1,81 to 83
12,CCCc1nc2c(N)nc3ccccc3c2n1CCCC(C)N(OC)C(C)=O (centres undefined),140 to 142
13,Nc1nccc2oc(I)cc12,170 to 173
14,Cc1ccc(C)n1C(C)c1nccc(I)c1F (centres undefined),156 to 158
15,O=C(CNC(=O)C(Cc1ccccc1)C(=O)NOCc1ccccc1)OCc1ccccc1 (centres undefined),70
16,CCOC(=O)c1nccn1C1Cc2c(cccc2-c2ccccc2)C1=O (centres undefined),185
17,COC(=O)c1ccc2c(c1)Sc1ccccc1N=C2N1CCOCC1,114 to 115
18,CN1CCC(c2c[nH]c3ccc(Sc4ccc(Cl)cc4)cc23)CC1,148 to 150
19,CC1(C)Oc2ccc(S(=O)(=O)c3ccc(C#N)cc3)cc2[C@@H](N2CCCC2=O)[C@@H]1O (relative stereo),234 to 235
20,CCCCNC(=O)c1ncc[nH]1,188 to 190
21,NC(=O)c1cnc2n(c1=O)CCCCC2,234 to 235
22,Nc1ncc(-c2cccs2)nc1C(=O)Nc1cccnc1,178 to 189
23,CCC(O)(c1ccc(O)cc1)c1ccc(Br)cc1 (centres undefined),161 to 162
24,CNC(=O)c1c(NC(=O)c2cc(C(F)(F)F)nn2-c2ncccc2Cl)ccc2cccnc12,219 to 220
25,CC(=O)OCC(=O)Nc1nc(CN2CCC(c3c[nH]c4ccccc34)CC2)cs1,140 to 144
26,COc1cccc2c1C(c1ccc(Cl)cc1)NC(=O)C2 (centres undefined),250 to 251
27,CN(C)CC(=O)N1CC(=Cc2ccccc2)C2=NN(C)C(c3ccccc3)C2C1 (centres undefined),132 to 134

row,SMILES,melting point [°C]
1,COc1ccc(Cn2cnc(=O)c3[nH]c(C(C)C)nc32)cc1OCc1ccccc1,233 to 235
2,CCNC(=O)c1c([Si](C)(C)C)ccc(C=O)c1Cl,140 to 142
3,C=CCN1C2CCC3C1CCC2N3C(c1ccc(C(=O)N2CCCC2)cc1)c1cccc(OC)c1 (centres undefined),126 to 128
4,COC(=O)c1ccccc1C(=O)NNC(=S)Nc1ccccc1,140 to 142
5,OC1CCN(c2nc(-c3ccccc3)nc3ccccc23)CC1,165 to 167
6,Cc1nc(C(=O)NCCN2CCOCC2)cc(-c2cccc([N+](=O)[O-])c2)c1C(C)O (centres undefined),166 to 167
7,CCOC(=O)C1(O)C(=O)N2CCOc3cc(Cl)cc1c32 (centres undefined),186 to 187
8,FC(F)(F)C1(c2cc(Cl)cc(Cl)c2)CCN(c2ccc(-n3cnnn3)c(Br)c2)C1 (centres undefined),193 to 194
9,CCOC(=O)C1Cc2cc(OC)c(OC)cc2C(c2ccccc2)N1C(=O)CNC(=O)OC(C)(C)C (centres undefined),166 to 167
10,CC1NC(=O)NN=C1c1ccc(OCC(=O)NCCN2CCN(S(C)(=O)=O)CC2)c(Cl)c1 (centres undefined),236 to 238
11,CCOC(=O)C1=C(N)NC(N)=C(C(=O)OC(C)C)C1c1ccccc1 (centres undefined),170
12,CCCc1nc2c(N)nc3ccccc3c2n1CCCCN(O)C(C)=O,191 to 193
13,CC1(C)Oc2cc(N)c(C#N)cc2[C@@H](N2CCCC2)[C@@H]1O (relative stereo),158 to 160
14,O=C(NC/C=C/c1ccccc1)c1cccs1,110
15,CC[C@H]1CN(c2ccc3c(=O)c(C(=O)O)cn([C@@H]4C[C@@H]4F)c3c2C)C[C@H]1N,232 to 234
16,CCc1ncnc(NC2CCC3(CC2)OCC(c2ccccc2)O3)c1Cl (centres undefined),105 to 106
17,Nc1c(Cl)ccc(Br)c1F,61 to 62
18,Cc1ccc2c(n1)sc1c(S)nnnc12,205 to 208
19,CC(C)c1nc(CO)[nH]c1Sc1cc(Cl)cc(Cl)c1,191 to 192
20,N=C(Nc1ccccc1-c1ccc(F)cc1)N1CCC(O)CC1,132 to 133
21,COCN1c2cc(C(=O)OC)ccc2Sc2nccnc21,151 to 152
22,CCCCCCCc1ccc(C(=O)CCCCC(=O)O)cc1N,100 to 102
23,CCOc1ccc(-c2cc(C3CCCCC3)nc(C3CCCCC3)c2)cc1,106
24,CCc1noc(-c2cn(-c3ccc(OCc4ccccc4)cc3)cn2)n1,171 to 172
25,Cn1cc(C2=C(c3cn(CCC(N)=O)c4ccccc34)C(=O)NC2=O)c2ccccc21,243 to 247
26,N#Cc1ccccc1OCCCCCC(=O)O,77 to 80

# Other lines, results leading:
row,melting point [°C],SMILES
1,49 to 50,COC(=O)c1ccc(Cl)c2c1C=CCO2
2,226 to 230,NCCC1CCC(C(O)(P(=O)(O)O)P(=O)(O)O)CC1 (centres undefined)
3,97 to 99,CCOc1cc(C2=NN(c3ccccc3)C(=O)[C@H]3CC=CC[C@@H]23)ccc1OC (relative stereo)
4,130 to 136,COc1ccc(CCNC(=O)c2ccc3n2Cc2ccccc2N(C(=O)c2ccc(-c4ccccc4C)c(C)c2)C3)cc1OC
5,134 to 135,CCOC(=O)COc1c(Cl)c(O)c2c(c1Cl)OC1(CCCCC1)CC2=O
6,127 to 130,CC(C)C(=O)N[C@@H](CS)C(=O)NCCSC(=O)c1ccccc1
7,113 to 114,CCOC(=O)c1cn(-c2ccccc2)nc1OCc1ccccc1
8,197 to 198,Cc1oc(-c2ccccc2)nc1COc1ccc(/C=C/C(=O)C(=O)O)cc1
9,285 to 287,Cn1c(=O)[nH]c(=O)c2c1ncn2CC#N
10,260 to 261,O=C1Nc2ccccc2Nc2nc(-c3ccccc3)ncc21
11,88 to 90,CN(C)C(=O)C(=O)c1ccc(Cl)cc1C(=O)c1ccccc1
12,129 to 131,CC1(C)OCC[C@@H]2[C@@H](NC(=O)OCc3ccccc3)C(=O)N21 (relative stereo)
13,94 to 97,O=C1CCc2c1cccc2[N+](=O)[O-]
14,255 to 257,COC(=O)c1ccc(C2C(C(=O)c3ccc(OC)cc3)=C(O)C(=O)N2c2nnc(C)s2)cc1 (centres undefined)
15,121 to 123,CCC1SC(c2ccncc2)=C(C)NC1=O (centres undefined)
16,170 to 171,Cn1cc(C2=C(c3cccc(NCCO)c3)C(=O)NC2=O)c2ccccc21
17,155 to 156,COCN1C(C)=C(C(=O)O)C(c2cccc(Cl)c2Cl)C(C(=O)O)=C1C
18,256 to 260,CN(C)C(=O)Nc1ccc(-c2c[nH]c(=O)cn2)cc1
19,70 to 71,CN(C)c1ccc2cc(C#N)oc2c1
20,73 to 74,CCCCCCCCCCC1SCCCN1C(=S)Nc1cccc(Br)c1 (centres undefined)
21,116,CC(C)(C)OC(=O)N[C@H](CO)Cc1ccc(-c2ccccc2)cc1
22,151 to 153,Cc1[nH]cnc1Cn1nnnc1-c1cccc(Cl)c1Cl
23,177,Cn1c(S(=O)(=O)c2ccc(C(=O)OCC(C)(C)C)c(Cl)c2)n[nH]c1=O
24,125 to 130,N#CCOc1c(Br)cc(Br)cc1C=O
25,45 to 50,NCC(=O)OCc1ccc([N+](=O)[O-])cc1
26,> 370,Nc1ncnc2[nH]c(=S)sc12

row,melting point [°C],SMILES
1,72 to 74,O=C(c1ccccc1)C(CCCCl)c1ccccc1 (centres undefined)
2,120 to 121,CCOc1cc2ncnc(N3CCN(C(=O)Nc4ccc([N+](=O)[O-])cc4)CC3)c2cc1OCC
3,105 to 106,CC1(C)CCOCN1C(=O)C(Cl)Cl
4,185 to 186,COc1ccc(/C=C/C(=O)N2CC(CCl)c3c2cc(NC(=O)OC(C)(C)C)c2ccccc32)cc1 (centres undefined)
5,99,C=CCN1CCN(C2N=C(N)OC2C)CC1 (centres undefined)
6,195 to 197,CCc1[nH]n(C2CCCC2)c2nc(Cc3cccc(O)c3)nc(=O)c1-2
7,164 to 167,CN1Cc2ccccc2C(=O)c2cc(CC(=O)O)cc(Br)c21
8,190 to 192,CCOC(=O)CSC(=S)N1Cc2[nH]c3ccccc3c2CC1C(=O)O (centres undefined)
9,330,O=c1[nH]c2ccc(C(F)(F)F)cc2[nH]c1=O
10,125 to 126,O=C1C(=O)c2ccccc2C2=C1SCC1(CCN(C(=O)C(Cl)c3ccccc3)CC1)O2 (centres undefined)
11,187,Cc1cn(C)c2c1N(C(=O)CCN1CCN(C)CC1)c1ccccc1NC2=O
12,94 to 95,CCCC(=O)c1ccc(OCCCCCC(=O)O)c(Cl)c1Cl
13,136,COC(=O)c1cc(C(=O)N[C@@H](Cc2ccccc2)[C@H](O)CNC2(c3cccc(C(F)(F)F)c3)CC2)n2c1CN(C(=O)OC(C)(C)C)CC2
14,298 to 301,COc1ccc2cc3c(c(-c4ccc(C)cc4)c2c1)CNC3=O
15,67 to 68,Cc1oc(-c2ccccc2)nc1COc1cccc(C=O)c1
16,94 to 95,Oc1ccc(Oc2cccc(C(F)(F)F)n2)cc1
17,153,COCCOc1ccc(CN(C(=O)C2CCCc3c(O)cccc32)c2ccc(C(C)C)cc2)cn1 (centres undefined)
18,214 to 216,COc1cc(OC(=O)c2cc(O)c(O)c(O)c2)ccc1OC(=O)c1cc(O)c(O)c(O)c1
19,134 to 136,O=C(O)c1ccc(Cl)cc1NC(=O)C(CS)Cc1ccccc1 (centres undefined)
20,78 to 85,Nc1c([N+](=O)[O-])cnn1-c1c(Cl)cc(C(F)(F)F)c(Cl)c1Cl
21,51 to 55,CCOC(=O)[C@H](CSCc1ccc(C)c(C)c1)NC(=O)C(CSC(C)=O)Cc1ccccc1 (some centres undefined)
22,113 to 114,CC(C)[Si](C)(C)CCCSCCNC(=O)n1cc(F)c(=O)[nH]c1=O
23,154 to 155,COc1ccc(CCc2nnc(-c3ccc4[nH]nnc4c3)o2)cc1C(F)(F)F
24,135 to 138,CC(C)NCC(O)c1ccc(OCc2ccccc2)c(C(N)=O)c1 (centres undefined)
25,210 to 211,CSc1nn2c(N)cc(C(C)C)nc2c1S(=O)(=O)c1ccccc1

# From a melting point compilation (Tetko et al.; mined from patent text by program, amines drawn as free bases though some values may be those of a salt)
